Results taken from patent publication US8541434B2, “Ethynyl-substituted pyridine and pyrimidine derivatives and their use in treating viral infections” (Merck Sharp & Dohme Corp., priority 2008, dated 2013).

What follows are molecules tested on HCV replicon cells (assay: Cell-based HCV replicon assay (replicon RNA level by real time PCR, Taqman)). Conditions: Hepatitis C virus, 72 h, harvested on day 3, EC90 = concentration necessary to achieve ΔCT=3.2 over the baseline, read-out: EC90 Range.
Protocol: Assays Cell-Based HCV Replicon Assay
To measure cell-based anti-HCV activity of the compounds of the present invention, replicon cells were seeded at 5000 cells/well in 96-well collagen I-coated Nunc plates in the presence of the compound of the invention. […] The final concentration of DMSO was 0.5%, fetal bovine serum was 10%, in the assay media. Cells were harvested on day 3 by the addition of 1× cell lysis buffer (Ambion cat #8721). The replicon RNA level was measured using real time PCR (Taqman assay). The amplicon was located in 5B. […] GAPDH RNA was used as endogenous control and was amplified in the same reaction as NS5B (multiplex PCR) using primers and VIC-labeled probe recommended by the manufacturer (PE Applied Biosystem). The real-time RT-PCR reactions were run on ABI PRISM 7900HT Sequence Detection System using the following program: 48° C. for 30 min, 95° C. for 10 min, 40 cycles of 95° C. for 15 sec, 60° C. for 1 min. The ACT values (CT5B-CTGAPDH) were plotted against the concentration of test compound and fitted to the sigmoid dose-response model using GraphPad PRISM software. EC50 was defined as the concentration of inhibitor necessary to achieve ΔCT=1 over the projected baseline; EC90 the concentration necessary to achieve ΔCT=3.2 over the baseline. Alternatively, to quantitate the absolute amount of replicon RNA, a standard curve was established by including serially diluted T7 transcripts of replicon RNA in the Taqman assay. All Taqman reagents were from PE Applied Biosystems. Such an assay procedure was described in detail in e.g. Malcolm et al., Antimicrobial Agents and Chemotherapy 50: 1013-1020 (2006).
For `COCCNc1nc(C)c(C#Cc2ccc(OC)nc2)c(N[C@@H]2C[C@H](CO)[C@@H](O)[C@H]2O)n1` [Compound 77], the EC90 was ≤ 0.5 µM. `CSc1ccc(C#Cc2c(Cl)nc(N)nc2N[C@@H]2C[C@H](CO)[C@@H](O)[C@H]2O)c(C)n1` [Compound 64] was tested, and the EC90 was ≤ 0.5 µM. `COc1ncccc1C#Cc1c(Cl)nc(N)nc1N[C@@H]1C[C@H](CO)[C@@H](O)[C@H]1O` [Compound 12] showed an EC90 of 0.5 to 5 µM. With `Nc1nc(Cl)c(C#Cc2ccc(C3CCCCN3)s2)c(N[C@@H]2C[C@H](CO)[C@@H](O)[C@H]2O)n1` (stereo partly shown) [Compound 31] the EC90 was ≤ 0.5 µM. With `COCCNc1nc(C)c(C#Cc2ccc(-c3ccccn3)s2)c(N[C@@H]2C[C@H](CO)[C@@H](O)[C@H]2O)n1` [Compound 105] the EC90 was 0.5 to 5 µM. For `CCOc1ccc(C#Cc2c(C)nc(NCCOC)nc2N[C@@H]2C[C@H](CO)[C@@H](O)[C@H]2O)cn1` [Compound 81], the EC90 was ≤ 0.5 µM. For `CCOc1ccc(C#Cc2c(Cl)nc(N)nc2N[C@@H]2C[C@H](CO)[C@@H](O)[C@H]2O)c(C)n1` [Compound 2], the EC90 was ≤ 0.5 µM. For `COc1ccc(C#Cc2c(Cl)nc(N)nc2N[C@@H]2C[C@H](CO)[C@@H](O)[C@H]2O)c(C)c1` [Compound 29], the EC90 was 0.5 to 5 µM. `CCc1nc(C)ccc1C#Cc1c(Cl)nc(N)nc1N[C@@H]1C[C@H](CO)[C@@H](O)[C@H]1O` [Compound 17] was tested, and the EC90 was 0.5 to 5 µM. For `CCOc1ccc(C#Cc2c(C)nc(NCC(F)(F)F)nc2N[C@@H]2C[C@H](CO)[C@@H](O)[C@H]2O)cn1` [Compound 86], the EC90 was ≤ 0.5 µM. For `OC[C@H]1C[C@@H](Nc2nc(NCC(F)(F)F)nc(Cl)c2C#Cc2ccc(-c3ccccn3)s2)[C@H](O)[C@@H]1O` [Compound 97], the EC90 was ≤ 0.5 µM. In the case of `Cc1nc(NCc2ccccn2)nc(N[C@@H]2C[C@H](CO)[C@@H](O)[C@H]2O)c1C#Cc1ccsc1` [Compound 102], the EC90 is reported as ≤ 0.5 µM. For `COC(=O)c1ncccc1C#Cc1c(Cl)nc(N(C)C)nc1N[C@@H]1C[C@H](CO)[C@@H](O)[C@H]1O` [Compound 62], the EC90 was 0.5 to 5 µM. For `CCOc1ccc(C#Cc2c(Cl)nc(NCCOC)nc2N[C@@H]2C[C@H](CO)[C@@H](O)[C@H]2O)c(C)n1` [Compound 71], the EC90 was ≤ 0.5 µM. `COCCNc1nc(Cl)c(C#Cc2ccc(OC)nc2C)c(N[C@@H]2C[C@H](CO)[C@@H](O)[C@H]2O)n1` [Compound 67] was tested, and the EC90 was ≤ 0.5 µM. `Cc1nc(NCC2CC2)nc(N[C@@H]2C[C@H](CO)[C@@H](O)[C@H]2O)c1C#Cc1ccc(-c2ccccn2)s1` [Compound 104] showed an EC90 of 0.5 to 5 µM. In the case of `CCOc1ccc(C#Cc2c(C)nc(N)nc2N[C@@H]2C[C@H](CO)[C@@H](O)[C@H]2O)cn1` [Compound 1], the EC90 is reported as ≤ 0.5 µM. For `Nc1nc(Cl)c(C#Cc2ccccc2Cl)c(N[C@@H]2C[C@H](CO)[C@@H](O)[C@H]2O)n1` [Compound 60], the EC90 was 0.5 to 5 µM. `CNC(=O)c1ncccc1C#Cc1c(Cl)nc(N)nc1N[C@@H]1C[C@H](CO)[C@@H](O)[C@H]1O` [Compound 57] was tested, and the EC90 was 0.5 to 5 µM. For `CNc1nc(Cl)c(C#Cc2ccc(SC)nc2C)c(N[C@@H]2C[C@H](CO)[C@@H](O)[C@H]2O)n1` [Compound 66], the EC90 was ≤ 0.5 µM. In the case of `CCOc1ccc(C#Cc2c(Cl)nc(N)nc2N[C@@H]2C[C@H](CO)[C@@H](O)[C@H]2O)cn1` [Compound 21], the EC90 is reported as ≤ 0.5 µM. In the case of `CSCCNc1nc(C)c(C#Cc2ccc(-c3ccccn3)s2)c(N[C@@H]2C[C@H](CO)[C@@H](O)[C@H]2O)n1` [Compound 96], the EC90 is reported as ≤ 0.5 µM. `Cc1ccc(C#Cc2c(Cl)nc(N)nc2N[C@@H]2C[C@H](CO)[C@@H](O)[C@H]2O)c(C)n1` [Compound 16] was tested, and the EC90 was ≤ 0.5 µM. With `COCCNc1nc(C)c(C#Cc2ccc(OC)nc2C)c(N[C@@H]2C[C@H](CO)[C@@H](O)[C@H]2O)n1` [Compound 82] the EC90 was ≤ 0.5 µM. With `Nc1nc(Cl)c(C#Cc2ccc(Cl)nc2)c(N[C@@H]2C[C@H](CO)[C@@H](O)[C@H]2O)n1` [Compound 9] the EC90 was > 5 µM.
